Patent US12344631B2, “C17 polar-substituted heteroaromatic synthetic triterpenoids and methods of use thereof” (REATA PHARMACEUTICALS, INC., priority 2019, dated 2025)

Columns and labels:
[1] = test system: RAW 264.7 cells; test: Nitric oxide suppression assay (IFNγ-induced NO production); type: cell-based, mouse; conditions: for IC50: Mus musculus, RAW264.7, RAW 264.7 cells, 2 h pretreatment, 20 ng/mL interferon gamma 24 h, nitrite by Griess, read-out: NO IC50 (nM) (Mean ± SD); for NO IC50 Relative to RTA 402 (fold) (Mean ± SD): average of ratios from replicate experiments, benchmark RTA 402
Procedure: Tissue Culture. RAW 264.7, a mouse macrophage cell line, was obtained from American Type Culture Collection (Manassas VA) and maintained in the log phase of growth in Roswell Park Memorial Institute Medium 1640 (RPMI 1640) supplemented with 10% heat inactivated fetal bovine serum (FBS) and 1% penicillin-streptomycin. Cells were cultured and maintained in a humidified incubator at 37° C. under 5% CO2. Cells were sub-cultured every 3 days. […] All cell culture supplies were obtained from Life Technologies (Grand Island, NY) and VWR (Radnor, PA). Nitric Oxide Suppression Assay. RAW 264.7 cells were plated 1 day in advance of experimental treatments at a concentration of 30,000 cells per well onto Falcon-96 well clear bottom plates (Corning, NY) in a total volume of 200 μL per well using RPMI 1640 supplemented with 0.5% fetal bovine serum and 1% penicillin-streptomycin. The next day, cells were pretreated with compounds serially diluted from 1000× stocks. All compounds were dissolved in dimethyl sulfoxide (DMSO) at 10 mM stock solutions. Compounds were subsequently diluted in DMSO and RPMI 1640. Each well received a final concentration of 0.1% DMSO. Cells were pretreated for 2 hours and incubation at 37° C., followed by treatment with 20 ng/mL of interferon gamma (R&D Systems, Minneapolis, MN) per well for 24 hours. […] Afterwards, 50 μL of cell culture supernatant was transferred from each well into a new Falcon-96 well clear bottom plate. […] Afterwards, air bubbles were removed using ethanol vapor and absorbance was measured using a Spectramax M2e plate reader with a wavelength set to 525 nm. Viability was assessed using WST-1 cell proliferation reagent from Roche (Basel, Switzerland). After media was removed for the Nitric Oxide suppression assay, 15 μL of WST-1 reagent was added to each well of cells. Plates were briefly mixed on an orbital shaker and the cells were incubated at 37° C. for 30 minutes. Absorbance was measured using a Spectramax M2e plate reader with wavelengths set to 440 nm and 700 nm. For the ability of compounds to suppress the increase in nitric oxide release caused by interferon gamma, the absolute amount of nitrite that was produced in each well was extrapolated from the nitrite standards using a linear regression fit. All values were then normalized to the DMSO-interferon gamma treated wells and plotted as percent nitric oxide. IC50 values were calculated with a dependence on WST1 viability using Excel and/or GraphPad Prism (San Diego, CA).

[2] = test system: AML-12 hepatocyte cell line; test: Glutathione assay (total glutathione, GSH-Glo); type: cell-based, mouse; conditions: for EC50: Mus musculus, AML12, AML-12 cells, 24 hours, total glutathione, read-out: GSH EC50 (nM) (Mean ± SD); for GSH EC50 Relative to RTA 402 (fold) (Mean ± SD): benchmark RTA 402
Procedure: The effect of compound treatment on total glutathione levels was evaluated in the mouse AML-12 hepatocyte cell line. Glutathione—a tripeptide consisting of cysteine, glutamate, and glycine—is the major thiol-containing protein within the cell and regulates cellular redox balance. Glutathione also plays important roles in detoxification, protein glutathionylation, and iron-sulfur cluster biogenesis (Bachhawat and Yadav, 2018). Nrf2 regulates the expression of many genes involved in glutathione synthesis and metabolism, including both subunits of glutamate cysteine ligase (GCL), the enzyme that catalyzes the rate limiting step of glutathione biosynthesis (Thimmulappa et al., 2002). […] The next day, cells were treated with vehicle (DMSO) or test compound (0.03 nM to 1000 nM). Each well received a final concentration of 0.1% DMSO. Cells were incubated at 37° C., 5% CO2 for 24 hours. Total glutathione concentrations were measured using the GSH-Glo Glutathione Assay kit (Promega) according to the manufacturer's instructions. Briefly, a standard curve was prepared by serially diluting the provided glutathione solution. […] After a 30-minute incubation at room temperature, 100 μL of Luciferin detection reagent was added to all sample and standard wells and incubated for 15 minutes. Luminescence was measured using a PHERAstar plate reader. The EC50 value was determined using Excel and GraphPad Prism software. The basal concentration of glutathione was set to 0% and the highest concentration of glutathione produced following treatment with a test compound was set to 100% and a dose-response curve was generated. The dose-response curve was fit using nonlinear regression analysis and used to extrapolate the EC50 value.

[3] = test system: AREc32 reporter cell line (antioxidant response element of rat Gsta2, Nrf2 target gene); test: AREc32 luciferase reporter activation; type: cell-based, human; conditions: for AREc32 EC2X Relative to RTA 402 (fold) (Mean ± SD): average of ratios from replicate experiments, benchmark RTA 402; for AREc32 Relative to CC in Same Experiment (Mean ± SD): average of ratios from experiments with direct comparisons; for EC (2-fold): human, Arec32, 19 h, concentration increasing luminescence signal 2-fold above vehicle, nineteen hours, read-out: AREc32 EC2X (nM) (Mean ± SD)
Procedure: […] The effect of several compounds disclosed herein on luciferase reporter activation was assessed in the AREc32 reporter cell line (see Table 10 and Table 11). This cell line is derived from human breast carcinoma MCF-7 cells and is stably transfected with a luciferase reporter gene under the transcriptional control of eight copies of the antioxidant response element from the rat Gsta2 gene, an Nrf2 target gene ([…] et al., 1990). […] Twenty-four hours after plating, cells were treated with vehicle (DMSO) or test compounds at concentrations ranging from 0.03 to 1000 nM for nineteen hours. Media was removed and 100 μL of 1:1 mixture of the One-Glo Luciferase assay reagent and culture medium was added to each well. After incubation for 5 min at room temperature, the luminescence signal was measured on a PHERAstar plate reader. The EC2X value was determined using Excel and GraphPad Prism software. The fold increase in luminescence signal for cells treated with each concentration of compound relative to cells treated with vehicle was determined and a dose-response curve was generated. The dose-response curve was fit using nonlinear regression analysis and used to extrapolate the EC2X value.

[4] = target: CYP3A4 (Homo sapiens, UniProt P08684); test: CYP3A4 (midazolam) inhibition in human liver microsomes; conditions: human liver microsomes; for inhibition at 10 min, 1 μM: human, probe midazolam (5 μM); for CYP3A4 (Midazolam) % Inhibition: historical data performed under comparable conditions, 1 μM
CYP3A4, sequence (P08684 whole entry): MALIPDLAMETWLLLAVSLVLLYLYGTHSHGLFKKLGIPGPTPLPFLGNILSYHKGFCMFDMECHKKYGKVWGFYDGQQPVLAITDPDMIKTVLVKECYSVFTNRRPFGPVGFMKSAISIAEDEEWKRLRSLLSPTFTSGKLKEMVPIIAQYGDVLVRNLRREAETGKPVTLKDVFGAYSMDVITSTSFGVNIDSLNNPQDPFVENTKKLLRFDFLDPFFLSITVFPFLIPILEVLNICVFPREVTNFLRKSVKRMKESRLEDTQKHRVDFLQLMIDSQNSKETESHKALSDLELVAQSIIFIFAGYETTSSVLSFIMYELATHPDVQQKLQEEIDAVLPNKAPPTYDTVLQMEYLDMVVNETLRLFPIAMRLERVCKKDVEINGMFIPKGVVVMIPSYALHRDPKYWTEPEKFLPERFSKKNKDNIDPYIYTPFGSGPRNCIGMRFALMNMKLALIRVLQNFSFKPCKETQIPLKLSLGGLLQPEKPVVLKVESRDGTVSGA

| Structure (SMILES) | IC50 [1] [nM] | NO IC50 Relative to RTA 402 (fold) (Mean ± SD) [1] | EC50 [2] [nM] | GSH EC50 Relative to RTA 402 (fold) (Mean ± SD) [2] | AREc32 EC2X Relative to RTA 402 (fold) (Mean ± SD) [3] | AREc32 Relative to CC in Same Experiment (Mean ± SD) ([3]; comparison compound CC1) | EC (2-fold) [3] [nM] | inhibition at 10 min, 1 μM [4] [%] | AREc32 Relative to CC in Same Experiment (Mean ± SD) ([3]; comparison compound CC2) | AREc32 Relative to CC in Same Experiment (Mean ± SD) ([3]; comparison compound CC3) | CYP3A4 (Midazolam) % Inhibition [4] [%] |
| --- | --- | --- | --- | --- | --- | --- | --- | --- | --- | --- | --- |
| Cc1nnc([C@]23CCC(C)(C)C[C@H]2[C@H]2C(=O)C=C4[C@@]5(C)C=C(C#N)C(=O)C(C)(C)[C@@H]5CC[C@@]4(C)[C@]2(C)CC3)o1 [CC1, reference compound] | 2.05 | 0.78 ± 0.10 | 1.09 ± 0.13 | 0.70 ± 0.12 | 0.79 ± 0.24 | 1.00 | 10.6 ± 2.73 | 20.7 | – | – | – |
| Cc1noc([C@]23CCC(C)(C)C[C@H]2[C@H]2C(=O)C=C4[C@@]5(C)C=C(C#N)C(=O)C(C)(C)[C@@H]5CC[C@@]4(C)[C@]2(C)CC3)n1 [CC2, reference compound] | 1.98 | 0.70 ± 0.18 | 2 ± 1.24 | 0.80 ± 0.16 | 0.74 ± 0.16 | – | 8.59 ± 1.88 | 45.8 | 1.00 | – | – |
| Cc1noc([C@]23CCC(C)(C)C[C@H]2[C@H]2C(=O)C=C4[C@@]5(C)C=C(C#N)C(=O)[C@@H](C)[C@@H]5CC[C@@]4(C)[C@]2(C)CC3)n1 [CC3, reference compound] | 1.34 | 0.40 ± 0.06 | 1.16 ± 0.53 | 0.43 ± 0.14 | 0.66 ± 0.21 | – | 7.11 ± 1.15 | 37.7 | – | 1.00 | – |
| C[C@@H]1C(=O)C(C#N)=C[C@]2(C)C3=CC(=O)[C@@H]4[C@@H]5CC(C)(C)CC[C@]5(c5nc(C(F)(F)F)no5)CC[C@@]4(C)[C@]3(C)CC[C@@H]12 [Compound T36] | 17.8 ± 9.89 | 3.95 ± 0.84 | 10.4 ± 1.62 | 5.40 ± 0.54 | 2.25 ± 0.31 | – | 33.7 ± 6.99 | – | – | – | – |
| CCc1noc([C@]23CCC(C)(C)C[C@H]2[C@H]2C(=O)C=C4[C@@]5(C)C=C(C#N)C(=O)[C@@H](C)[C@@H]5CC[C@@]4(C)[C@]2(C)CC3)n1 [Compound T37] | 3.45 ± 1.87 | 0.76 ± 0.12 | 1.69 ± 0.19 | 0.88 ± 0.13 | 0.69 ± 0.06 | – | 10.3 ± 1.35 | – | – | 1.58 ± 0.16 | – |
| CC1(C)CC[C@]2(c3noc(C(F)(F)F)n3)CC[C@]3(C)[C@H](C(=O)C=C4[C@@]5(C)C=C(C#N)C(=O)C(C)(C)[C@@H]5CC[C@]43C)[C@@H]2C1 [Compound T40] | 24.2 ± 7.64 | 7.76 ± 2.19 | 18.3 ± 2.19 | 8.96 ± 0.68 | 4.76 ± 0.93 | – | 64.9 ± 12.6 | – | – | – | – |
| CC1(C)CC[C@]2(c3noc(C(F)F)n3)CC[C@]3(C)[C@H](C(=O)C=C4[C@@]5(C)C=C(C#N)C(=O)C(C)(C)[C@@H]5CC[C@]43C)[C@@H]2C1 [Compound T41] | 9.84 ± 3.52 | 2.79 ± 0.64 | 4.85 ± 0.36 | 2.38 ± 0.29 | 1.52 ± 0.19 | – | 24.2 ± 3.36 | – | – | – | – |
| CC1(C)CC[C@]2(c3nc(C(F)F)no3)CC[C@]3(C)[C@H](C(=O)C=C4[C@@]5(C)C=C(C#N)C(=O)C(C)(C)[C@@H]5CC[C@]43C)[C@@H]2C1 [Compound T43] | 6.45 ± 1.29 | 1.90 ± 0.49 | 3.29 ± 0.55 | 1.60 ± 0.05 | 0.62 ± 0.09 | – | 9.92 ± 2.32 | – | 1.09 ± 0.09 | – | – |
| CC1(C)CC[C@]2(c3nnc(C(F)F)o3)CC[C@]3(C)[C@H](C(=O)C=C4[C@@]5(C)C=C(C#N)C(=O)C(C)(C)[C@@H]5CC[C@]43C)[C@@H]2C1 [Compound T44] | 4.24 ± 2.23 | 1.24 ± 0.04 | 2.05 ± 0.64 | 1.04 ± 0.06 | 0.57 ± 0.12 | 0.91 ± 0.21 | 8.62 ± 0.45 | – | – | – | – |
| CC1(C)CC[C@]2(c3nnc(C(F)(F)F)o3)CC[C@]3(C)[C@H](C(=O)C=C4[C@@]5(C)C=C(C#N)C(=O)C(C)(C)[C@@H]5CC[C@]43C)[C@@H]2C1 [Compound T45] | 12.9 ± 6.38 | 3.81 ± 0.34 | 8 ± 1.37 | 4.14 ± 0.35 | 1.95 ± 0.57 | – | 29.1 ± 2.09 | – | – | – | – |
| CCc1nnc([C@]23CCC(C)(C)C[C@H]2[C@H]2C(=O)C=C4[C@@]5(C)C=C(C#N)C(=O)C(C)(C)[C@@H]5CC[C@@]4(C)[C@]2(C)CC3)o1 [Compound T46] | 5.44 ± 2.81 | 1.60 ± 0.29 | 2.39 ± 0.29 | 1.24 ± 0.17 | 1.60 ± 0.44 | – | 24 ± 1.5 | – | – | – | – |
| COC(=O)[C@]12CCC(C)(C)C[C@H]1[C@H]1C(=O)C=C3[C@@]4(C)C=C(C#N)C(=O)C(C)(C)[C@@H]4CC[C@@]3(C)[C@]1(C)CC2 [RTA 402, Bardoxolone methyl, reference compound] | – | – | – | – | – | – | – | – | – | – | 48.4 |
| CC1(C)CC[C@]2(NC(=O)C(C)(F)F)CC[C@]3(C)[C@H](C(=O)C=C4[C@@]5(C)C=C(C#N)C(=O)C(C)(C)[C@@H]5CC[C@]43C)[C@@H]2C1 [RTA 408, omaveloxolone, reference compound] | – | – | – | – | – | – | – | – | – | – | 56.6 |
